The text below walks through data of PMC12406204 (Journal of Medicinal Chemistry, 2025).

SMILES strings stand for the structures.

Data set [1] has as its target CB1R (Homo sapiens, UniProt P21554). The experiment in a line: CB1R radioligand binding competition ([3H]CP55,940). Set-up: host or cells: CHO-CB1 C3 cell line. The conditions noted are these: for CB1R % at 1 μM: percentage displacement of specific [3H]CP 55,940 binding at 1 μM, n = 2.
The test system of data set [2] is mouse primary neurons. The experiment in a line: Viability of primary neuronal cultures, basal conditions (trypan blue). The conditions noted are these: 100 nM, 24 h. It counts as cell-based. The method, then: A mouse primary cell experiment was performed to examine the neuroprotective effects of CB2R agonists selected for in-depth study (16i, 16j, 18e, 18f, 18o, and 18p). First, to exclude any intrinsic toxicity of the selected candidates, their potential effects on primary cell cultures were assessed. […] This finding is particularly noteworthy, and not self-evident, given the significant neurotoxicity observed during our earlier study with structurally related, classical abused [CB1R/CB2R promiscuous] synthetic cannabinoids (SCRAs). For comparative purposes, Figure A also depicts cell viability data obtained for some abused SCRAs (Figure A, gray bars) under identical conditions.
To prepare primary neurons, brains from fetuses of pregnant CD1 mice were removed (gestational age: 19 days). Neurons were isolated as described in Hradsky et al. Briefly, after removal of the meninges, samples were dissected and digested with 0.25% trypsin (20 min at 37 °C). The effect of trypsin was stopped by adding an equal volume of culture medium (supplemented DMEM). A single-cell suspension was obtained by repeated pipetting followed by passage through a 100 μm-pore mesh. Pelleted (7 min, 200g) cells were resuspended in 2 mL of supplemented DMEM and seeded at a density of 3.5 × 10^5 cells/mL in 6-well plates. After 24 h, the medium was replaced by neurobasal medium supplemented with 2 mM L-glutamine, 100 U/mL penicillin/streptomycin and 2% (v/v) B27 medium (GIBCO, Waltham, MA, USA). Primary neurons were assayed after 14 days in culture. Using NeuN as a marker, the percentage of neurons in the culture was >90%.
Primary cultures of striatal neurons were treated for 24 h with selected SCRAs (100 nM). Afterward, cells were scrapped from the plate and resuspended in neurobasal medium supplemented with 2 mM L-glutamine, 100 U/mL penicillin/streptomycin and 2% (v/v) B27 (GIBCO). Trypan blue staining was performed mixing 1 part of 0.4% trypan blue and 1 part of cell suspension in a plastic tube. After ∼3 min of incubation at room temperature, 10 μL of the mixture were sampled in a Neubauer chamber and counted with a Countess II FL (Life Technologies, California, CA, USA). The unstained (viable) and stained (nonviable) cells were counted separately, and the percentage of viability was calculated as total number of viable cells/total number of cells × 100.

Data set [3] in a line: Cytotoxicity on THP1 monocytes and macrophages. It counts as cell-based. The conditions noted are these: human, 100 nM, basal and LPS-stimulated conditions, read-out: cell viability (cytotoxicity). From the text:
These findings collectively highlight the anti-inflammatory properties of the selected CB2R agonists. […] The cytokine modulation profiles observed (Figure ) support the hypothesis that these ligands promote a shift toward an anti-inflammatory immune response, reducing the detrimental effects of chronic inflammation. This makes them promising candidates for the development of new therapies addressing severe inflammatory conditions, such as systemic infections, sepsis, neuroinflammation, and certain types of cancer or scenarios where conventional anti-inflammatory treatments are insufficient. Moreover, the selective targeting of CB2R without activating CB1R ensures a favorable safety profile, minimizing the risk of psychoactive side effects, and positioning these ligands as promising candidates for neurodegenerative and oncological therapies. To ensure the safety and viability of our tested compounds, we evaluated their cytotoxic effects on monocytes and macrophages under the same conditions as those used for assessing anti-inflammatory activity (Figure ). Each compound was tested at a concentration of 100 nM.
Supplementary Figure S5. Cytotoxicity assessment of lead compounds (16i, 16j, 18e, 18f, 18o, and 18p) on THP1 monocytes and macrophages (n = 3). Cells were treated with each compound at 100 nM under both basal and LPS - stimulated conditions. The viability was compared to controls, including HU308 and SR144528. […]
cytotoxic effects, with cell viability remaining close to 100% across all conditions. Error bars represent standard deviation.
(1 picture or pasted object on this page, not shown here)

Data set [4] is described as follows: Drug transport (BBB permeability) in Caco-2 monolayer. It counts as in vitro ADME. Particulars: human; for efflux ratio at 120 min: Caco-2, bidirectional permeability ratio, read-out: P app (BA/AB); for Papp A→B at 120 min / Papp B→A at 120 min: Caco-2 monolayer, 1 × 10^–4 M. The procedure:
(§1) To validate the early predictions from the CNS-MPO and BOILED-egg models (Figure ), we experimentally assessed the BBB permeability and P-gp interaction of the selected CB2R agonists. For these studies, two pairs of amide enantiomers (18p and 18o, 18e, and 18f) were selected, and the evaluations were conducted using established protocols previously published by our group. Key parameters measured included the permeability coefficients (P appBA and P appAB), the bidirectional permeability ratio (BA/AB), and the degree of interaction with P-gP, as detailed in Table .
Caco-2 cells were grown in Dulbecco’s high-glucose modified eagle medium, composed of 10% fetal bovine serum, 2 mM of glutamine, 100 U/mL of penicillin, and 0.1 mg/mL of streptomycin (all components purchased from Corning, Milan, Italy) in a humidified incubator at 37 °C with a 5% CO2 atmosphere. The experiment started with the preparation of the Caco-2 monolayer, which occurred by seeding the cells (20,000/well) in Millicell plates (Millipore, Milan, Italy). Its growth was followed for 21 days by changing the medium occasionally and measuring its transepithelial electrical resistance (TEER) daily using an epithelial voltohmmeter (Millicell-ERS) until a TEER value >240 ohms × cm^2 was reached. After 21 days, the plate was washed twice with Hank’s balanced salt solution (HBSS) (Invitrogen). After the second wash, the wells were filled with buffer, and the plate was kept at 37 °C for 30 min. After the incubation time, the HBSS buffer was replaced with the solutions of the compounds to be tested at a concentration of 1 × 10^–4 M. The plates were placed in an incubator at 37 °C for 120 min. The apparent permeability (P app), in units of nm s^–1, was calculated as previously reported. ,
(In general: Caco-2 cells form a polarised layer with tight junctions and transporters.)

Data set [5] has as its target P-glycoprotein (P-gp) (Homo sapiens, UniProt P08183). The data set is described as follows: P-gp interaction, Calcein-AM experiment. It counts as cell-based. The conditions noted are these: for P-gp interaction % at 100 μM: inhibition at 100 μM; for EC50: Calcein-AM. The method, then:
as §1
This experiment was carried out as described by Contino et al. with minor modifications. Each cell line (30,000 cells per well) was seeded into black CulturePlate 96/wells plate with 100 μL medium and allowed to become confluent overnight. 100 μL of test compounds were solubilized in culture medium and added to monolayers, with final concentrations ranging from 0.1 to 100 μM. 96/Wells plate was incubated at 37 °C for 30 min. Calcein-AM was added in 100 μL of Phosphate Buffered Saline (PBS) to yield a final concentration of 2.5 μM and plate was incubated for 30 min. Each well was washed 3 times with ice cold PBS. Saline buffer was added to each well and the plate was read with Victor3 (PerkinElmer) at excitation and emission wavelengths of 485 and 535 nm, respectively. In these experimental conditions Calcein cell accumulation in the absence and in the presence of tested compounds was evaluated and fluorescence basal level was estimated with untreated cells. In treated wells the increase of fluorescence with respect to basal level was measured. EC50 values were determined by fitting the fluorescence increase percentage versus log[dose].

Sequence of CB1R (P21554 whole entry): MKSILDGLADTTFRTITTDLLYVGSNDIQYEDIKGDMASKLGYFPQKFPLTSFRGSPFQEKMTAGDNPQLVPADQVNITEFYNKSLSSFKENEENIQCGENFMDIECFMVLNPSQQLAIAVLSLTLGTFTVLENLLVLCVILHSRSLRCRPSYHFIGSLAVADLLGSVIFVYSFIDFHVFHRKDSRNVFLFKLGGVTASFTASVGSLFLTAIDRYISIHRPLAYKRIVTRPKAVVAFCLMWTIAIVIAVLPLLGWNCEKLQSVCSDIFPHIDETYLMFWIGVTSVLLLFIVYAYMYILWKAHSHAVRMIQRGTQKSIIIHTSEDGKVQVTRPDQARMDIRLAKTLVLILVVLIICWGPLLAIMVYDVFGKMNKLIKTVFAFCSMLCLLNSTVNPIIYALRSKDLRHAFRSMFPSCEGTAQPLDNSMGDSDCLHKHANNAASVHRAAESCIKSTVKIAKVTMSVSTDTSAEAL
Sequence of P-glycoprotein (P-gp) (P08183 whole entry): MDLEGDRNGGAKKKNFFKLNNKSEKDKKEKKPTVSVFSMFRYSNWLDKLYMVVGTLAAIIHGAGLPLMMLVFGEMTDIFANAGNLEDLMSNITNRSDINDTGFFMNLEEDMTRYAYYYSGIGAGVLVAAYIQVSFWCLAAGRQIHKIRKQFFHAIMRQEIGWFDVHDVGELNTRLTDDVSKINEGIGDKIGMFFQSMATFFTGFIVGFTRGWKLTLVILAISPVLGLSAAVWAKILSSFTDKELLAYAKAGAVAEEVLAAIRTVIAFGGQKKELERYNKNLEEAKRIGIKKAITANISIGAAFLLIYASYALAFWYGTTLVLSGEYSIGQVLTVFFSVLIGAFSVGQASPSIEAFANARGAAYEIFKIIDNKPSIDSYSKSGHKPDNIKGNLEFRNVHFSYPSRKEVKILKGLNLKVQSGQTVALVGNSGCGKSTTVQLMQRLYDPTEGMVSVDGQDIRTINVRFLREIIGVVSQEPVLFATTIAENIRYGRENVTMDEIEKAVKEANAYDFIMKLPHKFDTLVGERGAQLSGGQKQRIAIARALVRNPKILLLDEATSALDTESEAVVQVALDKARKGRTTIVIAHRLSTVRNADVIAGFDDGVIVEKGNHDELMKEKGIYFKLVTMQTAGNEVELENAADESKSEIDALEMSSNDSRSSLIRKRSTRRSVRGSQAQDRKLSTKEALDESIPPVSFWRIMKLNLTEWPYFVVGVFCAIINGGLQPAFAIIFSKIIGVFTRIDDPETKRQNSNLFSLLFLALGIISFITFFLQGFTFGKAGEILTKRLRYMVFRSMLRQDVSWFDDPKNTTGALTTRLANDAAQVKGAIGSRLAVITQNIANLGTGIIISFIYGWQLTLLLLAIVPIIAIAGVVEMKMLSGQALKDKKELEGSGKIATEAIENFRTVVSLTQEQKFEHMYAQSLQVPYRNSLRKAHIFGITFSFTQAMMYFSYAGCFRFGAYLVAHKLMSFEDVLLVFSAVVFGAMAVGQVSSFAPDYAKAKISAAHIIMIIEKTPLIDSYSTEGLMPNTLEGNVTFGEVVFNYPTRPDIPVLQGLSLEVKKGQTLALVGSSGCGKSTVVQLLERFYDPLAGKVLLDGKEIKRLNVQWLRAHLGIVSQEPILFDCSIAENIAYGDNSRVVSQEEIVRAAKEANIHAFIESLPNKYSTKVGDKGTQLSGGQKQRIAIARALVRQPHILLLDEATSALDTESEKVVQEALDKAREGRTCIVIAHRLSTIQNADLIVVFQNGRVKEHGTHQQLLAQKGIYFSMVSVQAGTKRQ

The molecule `CCCCCn1nc(C(=O)N2CCCC[C@H]2C(=O)OC)c2ccccc21` [16i] returned a Ki in data set [1] (displacement of [3H]CP 55,940, membranes of CHO-CB1 C3 cells, n = 3) of 0.685 ± 0.021 µM. The primary cell survival entry in data set [2] is listed as “did not affect primary cell survival”. The viability at 0.1 µM in data set [3] was around 100%.
With `CCCCCn1nc(C(=O)N2CCCC[C@@H]2C(=O)OC)c2ccccc21` [16j], the “CB1R % at 1 μM” value in data set [1] came out at 3%. For the same molecule, the primary cell survival result in data set [2] is “did not affect primary cell survival”. In addition, the viability at 0.1 µM in data set [3] is around 100%.
For the molecule `NC(=O)[C@@H]1CCCCN1C(=O)c1cn(CC2CCCCC2)c2ccccc12` [18e], in data set [4], the efflux ratio at 120 min is 0.51, the Papp A→B at 120 min amounted to 99.5 ×10⁻⁶ cm/s and the Papp B→A at 120 min was determined as 50.6 ×10⁻⁶ cm/s. The “CB1R % at 1 μM” value in data set [1] is 19%. The “P-gp interaction % at 100 μM” value in data set [5] is listed as 30%. Moreover, in data set [5] (probe Calcein-AM (2.5 μM), at 1 μM as printed in text), the inhibition at 30 min, 1 μM was 30%. Further, the primary cell survival entry in data set [2] is listed as “did not affect primary cell survival”. In data set [3], the viability at 0.1 µM was around 100%.
For `NC(=O)[C@H]1CCCCN1C(=O)c1cn(CC2CCCCC2)c2ccccc12` [18f], in data set [4], the efflux ratio at 120 min was determined as 0.49, the Papp A→B at 120 min came to 79.2 ×10⁻⁶ cm/s and the Papp B→A at 120 min is 39.3 ×10⁻⁶ cm/s. Also, the “CB1R % at 1 μM” value in data set [1] came out at 11%. In data set [5], the EC50 was 61.8 µM. Besides, the primary cell survival entry in data set [2] was “did not affect primary cell survival”. Further, the viability at 0.1 µM in data set [3] is around 100%.
As for `NC(=O)[C@@H]1CCCCN1C(=O)c1nn(Cc2ccc(F)cc2)c2ccccc12` [18o], in data set [4], the efflux ratio at 120 min stood at 0.39, the Papp A→B at 120 min was determined as 72.7 ×10⁻⁶ cm/s and the Papp B→A at 120 min was 29 ×10⁻⁶ cm/s. In addition, the “P-gp interaction % at 100 μM” value in data set [5] was 49%. Also, in data set [2], the primary cell survival result is reported as “did not affect primary cell survival”. The viability at 0.1 µM in data set [3] is around 100%.
Consider `NC(=O)[C@H]1CCCCN1C(=O)c1nn(Cc2ccc(F)cc2)c2ccccc12` [18p], for which, in data set [4], the efflux ratio at 120 min turned out to be 0.35, the Papp A→B at 120 min came out at 63.2 ×10⁻⁶ cm/s and the Papp B→A at 120 min was determined as 21.9 ×10⁻⁶ cm/s. Also, the “CB1R % at 1 μM” value in data set [1] was determined as 2%. Also, in data set [5], the EC50 is 56.9 µM. In addition, in data set [2], the primary cell survival entry is listed as “did not affect primary cell survival”. The viability at 0.1 µM in data set [3] was around 100%.

The Ki is a dissociation constant, usually derived from enzyme kinetics or from competition with a known ligand. Higher therefore signals a looser hold on the target. Usually viability stands for a read-out of living cells in per cent, often relative to untreated cells. As a reminder, the Papp A→B is the apparent permeability from the apical to the basolateral side of a cell layer. As a reminder, the Papp B→A is the apparent permeability from the basolateral to the apical side of a cell layer. As a reminder, the inhibition is the drop in the measured response relative to a control, in per cent. What is called EC50 is the concentration that produces a half-maximal response.
